“Also recorded” adds a separate entry of the source.

Series [1] relates to HeLa cells expressing FUS GFP. Put plainly: Stress granule formation in HeLa FUS GFP cells under different stresses. As to conditions: 10 μM; mitochondrial (rotenone), hyperosmotic (sorbitol) or arsenate stress. The series is classed as cell-based. As to the method: The stressor, arsenate, will react with the thiol groups of lipoamide. Therefore, to exclude the possibility that lipoamide is acting only by removing the stressor, so it was further tested whether lipoic acid can prevent stress granule formation triggered by other stresses than arsenate (an oxidative) stress: Mitochondrial electron transport chain inhibition (rotenone), heat stress (42° C.), hyperosmotic stress (sorbitol, a non-metabolisable sugar), glycolysis inhibition ([…] in the absence of glucose) or serum starvation.
Various cellular stresses were achieved by replacing 1 h 1 mM potassium arsenate treatment with other conditions: 100 μM rotenone (R8875, Sigma Aldrich) from a 1 M stock in DMSO for 2 h (mitochondrial stress). […] Sorbitol (S1876, Sigma Aldrich) from a 4 M stock in H2O for 1 h (osmotic stress). 42° C. in normal growth medium for 30 m (heat stress). […] Appropriate solvent controls were used.

For series [2] the following is noted: in vivo; cited from earlier work.
Series [3] relates to EWSR1, TIAL1, PABPC1, G3BP1. Put plainly: Panel of HeLa lines expressing GFP-labelled stress granule proteins, arsenate stress. As to conditions: 1 mM arsenate, 10 μM compound. It counts as cell-based. The protocol:
It was anticipated that a useful therapeutic would prevent all PLD-containing stress granule proteins from localising to stress granules. The inventors used 1 mM arsenate to stress a panel of HeLa cell lines expressing GFP fusions of stress granule proteins (EWSR1, TIAL1, PABPC1, G3BP1) with either no treatment or 10 μM lipoic acid or lipoamide.
Compound effects were assessed under a variety of conditions in HeLa or iPS cells expressing wild-type or P525L FUS GFP by live cell imaging. Different combinations of 1 h pre-treatment compound or pre-stress with arsenate followed by 1 h treatment with compound and/or stress with arsenate. Unless otherwise indicated, cells were pre-treated for 1 h using 10 μM compound from 10 mM stock in DMSO (or an equal volume of DMSO control) then stressed for 1 h with 1 mM potassium arsenate still in the presence of compound. GFP fluorescence was imaged by widefield epifluorescence using an inverted Olympus IX71 microscope with an Olympus 100× NA 1.4 Plan Apo oil immersion objective and a CoolSNAP HQ CCD camera (Photometrics), using a DeltaVision climate control unit (37° C., 5% CO2) (Applied Precision). The kinetics of pre-stress followed by treatment was analysed from images captured at 2 min intervals for 100 min, for single time points images were captured after 1 h unless otherwise indicated.

Series [4] concerns iPS MNs expressing P525L FUS. Put plainly: Axon dieback of iPS-derived motor neurons expressing P525L FUS. The series is classed as cell-based, human. As to conditions: 2 μM in culture medium, 60 days. The text has this:
In humans, one cause of familial ALS is FUS mutation, particularly in the C terminal NLS. P525L is one such mutation, and iPSC-derived motor neurons (iPSC MNs) expressing P525L from ALS patients show defects consistent with motor neuron defects in the patient. iPSC MNs can be grown through silicone channels, positioning the soma on one side with the axons protruding through the channels to the far side. Such cultures can be maintained for long periods (>60 days). However, when expressing P525L FUS, the axons die back within this time period without exogenous cell stressors, although P525L FUS MNs have a greater propensity to form stress granules. This is similar to axon retraction leading to motor dysfunction in patients. Therefore whether lipoamide or lipoic acid was able to improve these phenotypes was tested. […] To test this the inventors analysed transport of lysosomes within the axons of iPS MNs expressing P525L FUS with or without lipoamide in comparison to iPS MNs expressing WT FUS (FIGS. 12A-12B). […]
For analysis of axon dieback transport AH-ALS1-F58 iPS MNs expressing P525L FUS or an isogenic control expressing WT FUS were grown with 2 μM compound or an equal volume of DMSO for 60 days. […] Experiments and analysis were performed blinded, and axonal dieback was scored qualitatively using phase contrast images captured every 10 to 20 days.

For series [5], the system named is D. melanogaster overexpressing human wild type FUS or ALS-associated FUS mutations. The series is described as follows: Climbing assay: motor defects in D. melanogaster expressing human FUS. As to conditions: for motor defect / ability to climb: flies expressing wild-type FUS, FUS P525L or FUS R521C. It counts as in vivo, Drosophila melanogaster. The protocol: All Drosophila stocks were maintained on standard cornmeal at 25° C. in light/dark controlled incubator. The w1118, UAS-eGFP, and D42-GAL4 were obtained from Bloomington stock center. The UAS-FUS WT, UAS-FUS P525L, and UAS-FUS R521C were previously described in Anderson et al. (Hum. Mol. Genet. 27, 1366-1381, 2018).
Climbing assays were performed as previously described. Briefly, flies expressing FUS, eGFP or w1118 were grown in the presence or absence of (±)-α-Lipoic Acid (0.43 mM or 2.15 mM diluted in ethanol), (R)-(+)-α-Lipoic Acid (0.43 mM or 2.15 mM diluted in ethanol), (S)-(−)-α-Lipoic Acid (0.43 mM or 2.15 mM diluted in ethanol), (±)-α-Lipoamide (0.43 mM diluted in DMSO), or PP 242/Torkinib (10 μM or 50 μM diluted in DMSO), then anesthetised, placed into vials and allowed to acclimatise for 15 mins in new vials. For each fly genotype, the vial was knocked three times on the base on a bench and a video camera was used to record the flies climbing up the vial walls. The percentage of flies that climbed 4 cm in 30 s was recorded. Statistical analysis was carried out in GraphPad Prism 6 using either Student's T-test or one-way ANOVA with Tukey's or Dunnet's multiple comparisons test.

For `NC(=O)CCCCC1CCSS1` (racemic) [lipoamide, 5-(1,2-dithiolan-3-yl)pentanamide], the stress granule formation entry in series [1] was “reduced stress granule formation”. Moreover, the toxicity result in series [2] is “non-toxic”. In addition, the “localisation of EWSR1, TIAL1, PABPC1, G3BP1 GFP to stress granules” value in series [3] was “localised to stress granules in the absence of treatment, and not in the presence”. For the same molecule, the axon die back result in series [4] is listed as “prevented such die back”. Also, the “motor defect / ability to climb” value in series [5] is “recovers defects in motor function”.

Regarding `O=C(O)CCCCC1CCSS1` (racemic) [lipoic acid, 5-(1,2-dithiolan-3-yl)pentanoic acid], the stress granule formation entry in series [1] was “reduced stress granule formation”. Moreover, the toxicity entry in series [2] is “non-toxic”. In addition, in series [3], the “localisation of EWSR1, TIAL1, PABPC1, G3BP1 GFP to stress granules” value is “localised to stress granules in the absence of treatment, and not in the presence”. Further, the axon die back entry in series [4] is “prevented such die back”. In series [5], the “motor defect / ability to climb” value is “recovered the motor defect in a dose-dependent manner; also recorded: dose-dependent increase in the ability”. Besides, the “flies able to climb 4 cm in 30 s” value in series [5] (food supplementation, from ˜50% without) is above 80%.

The record behind these values is US12422427B2, “Compounds for treatment of diseases and methods of screening therefor” (Max-Planck-Gesellschaft zur Förderung der Wissenschaften …, priority 2018, dated 2025).
